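Compound exposure: 48 hours, 5 concentrations, 96-well plates. Here, GI50 denotes the concentration required for 50% inhibition of growth.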 Active and inactive are the calls of the source. No stated cut-off is given here; in the data, active = GI50 up to about 1.1 µM and inactive = higher.

From ChEMBL document CHEMBL1201862, “PubChem BioAssay data set” (2004) come the findings set out here.

Some test systems named below: SK-MEL-28; A498; HL-60; OVCAR-5; NCI-H23; HT-29; CCRF-CEM; UACC-257; OVCAR-8; COLO 205; SF-268; SW-620; IGROV-1; Malme-3M; HCT-15; HOP-92; M14; NCI-H460.
Common to all, as to assay: DTP human tumour cell line panel, 48 h

For the molecule `O=c1ccn(/C=C/C(O)C(O)CO)c(=O)[nH]1` (centres undefined), the GI50 in the assay with SK-MEL-28, with A498, in the assay on HL-60, in the assay with OVCAR-5, with NCI-H23 and with HT-29 was > 100 µM (inactive) throughout. Besides, the GI50 with CCRF-CEM, with UACC-257, with OVCAR-8, with COLO 205, in the assay on SF-268 and in the assay on SW-620 was > 100 µM (inactive) in each case. For the same molecule, the GI50 is > 100 µM (inactive) with IGROV-1, > 100 µM (inactive) with Malme-3M and over 100 µM in the assay with HCT-15.

For `Cc1ccc(Cc2c(=O)[nH]nc3ccccc23)cc1`, the GI50 with SK-MEL-28, in the assay on A498, in the assay with OVCAR-5, in the assay with NCI-H23, with HT-29 and in the assay with CCRF-CEM was > 100 µM (inactive) throughout. Besides, the GI50 with UACC-257 was > 100 µM (inactive); with HOP-92 it was 89.7 µM (inactive); in the assay with OVCAR-8, > 100 µM (inactive); with COLO 205 it was > 100 µM (inactive); with SF-268, > 100 µM (inactive); in the assay with M14, > 100 µM (inactive). For the same molecule, the GI50 in the assay with SW-620 is > 100 µM (inactive); in the assay on IGROV-1 it was > 100 µM (inactive); with Malme-3M, > 100 µM (inactive); with HCT-15 it was over 100 µM; in the assay on NCI-H460, > 100 µM (inactive).

With `COc1ccc(/C=N/N=C(\N)NO)c(OC)c1C`, the GI50 in the assay with SK-MEL-28 was 5.57 µM (inactive); in the assay with A498, 25.4 µM (inactive); in the assay with OVCAR-5, 2.47 µM (inactive); with NCI-H23 it was 19.5 µM (inactive); in the assay on HT-29, 12.9 µM (inactive); with CCRF-CEM, 29.9 µM (inactive). For the same molecule, the GI50 with UACC-257 is 22.2 µM (inactive); in the assay with HOP-92, 19.8 µM (inactive); with OVCAR-8, 20.2 µM (inactive); in the assay on COLO 205, 10.2 µM (inactive); with SF-268, 15.4 µM (inactive); in the assay on SW-620, 22.8 µM (inactive). In addition, the GI50 in the assay on IGROV-1 was 56.4 µM (inactive); with Malme-3M it was 16.3 µM (inactive); in the assay on HCT-15 it was 9.14 µM; in the assay on NCI-H460, 15.6 µM (inactive).

Consider `C/C=C1\CCC2c3[nH]c4ccccc4c3CCN2C1` (centres undefined), for which the GI50 in the assay with SK-MEL-28 is > 100 µM (inactive); with A498, > 100 µM (inactive); in the assay on HL-60, 43.3 µM (inactive); in the assay on NCI-H23 it was 77.4 µM (inactive); in the assay with HT-29, 40 µM (inactive); in the assay on CCRF-CEM, > 100 µM (inactive). Besides, the GI50 was 26.3 µM (inactive) in the assay with HOP-92; > 100 µM (inactive) in the assay on OVCAR-8; > 100 µM (inactive) in the assay with SF-268; 21.5 µM (inactive) with M14; > 100 µM (inactive) in the assay on SW-620; > 100 µM (inactive) with IGROV-1. Moreover, the concentration for 50% growth inhibition (GI50) is 0.174 µM (active) in the assay with Malme-3M and > 100 µM (inactive) in the assay with NCI-H460.

With `COc1cccc(NC(=O)CSc2nnc(Cc3ccccc3)o2)c1`, the GI50 in the assay with SK-MEL-28 is > 100 µM (inactive); in the assay with A498, > 100 µM (inactive); in the assay on HL-60, 54.3 µM (inactive); in the assay with OVCAR-5, > 100 µM (inactive); with NCI-H23, > 100 µM (inactive); in the assay on HT-29, > 100 µM (inactive). The GI50 in the assay on CCRF-CEM, in the assay with UACC-257, in the assay with OVCAR-8, with COLO 205, in the assay on SF-268 and in the assay with M14 was > 100 µM (inactive) throughout. Also, the GI50 in the assay on SW-620 was > 100 µM (inactive); with IGROV-1, > 100 µM (inactive); in the assay on Malme-3M it was > 100 µM (inactive); with HCT-15 it was over 100 µM; with NCI-H460, > 100 µM (inactive).

`COc1cc2cc3c4c(cc(OC)c(OC)c4c2cc1OC)CCN3C(=O)CCCC(=O)O`: the GI50 in the assay with SK-MEL-28, in the assay with A498, with HL-60, with OVCAR-5, in the assay with NCI-H23 and with HT-29 was > 100 µM (inactive) throughout. In addition, the GI50 in the assay with CCRF-CEM, in the assay with UACC-257, in the assay with HOP-92, in the assay on COLO 205, in the assay on SF-268 and with M14 was > 100 µM (inactive) in each case. Besides, the GI50 with SW-620, with IGROV-1, in the assay with Malme-3M and in the assay on NCI-H460 was > 100 µM (inactive) in each case.

Turning to `CCCCC(C(=O)C(=O)Nc1ccc(C)cc1C)C(=O)C(C)C` (centres undefined), the GI50 with SK-MEL-28, with A498, in the assay on HL-60, with OVCAR-5, with NCI-H23 and in the assay with HT-29 was > 100 µM (inactive) in each case. Further, the GI50 in the assay with UACC-257, with HOP-92, in the assay with OVCAR-8, in the assay with SF-268, with M14 and in the assay with SW-620 was > 100 µM (inactive) each time. In addition, the GI50 was > 100 µM (inactive) in the assay with IGROV-1, > 100 µM (inactive) with Malme-3M, over 100 µM in the assay on HCT-15 and > 100 µM (inactive) in the assay on NCI-H460.

Consider `CCC1CC(C)=CCN1S(=O)(=O)c1ccc(C)cc1` (centres undefined), for which the GI50 with A498 is 42.6 µM (inactive); in the assay on HL-60, 3.61 µM (inactive); in the assay on OVCAR-5 it was 28 µM (inactive); in the assay with HT-29, 20 µM (inactive); in the assay with CCRF-CEM, 4.9 µM (inactive); with UACC-257, 25.9 µM (inactive). The GI50 in the assay on OVCAR-8 was 36.5 µM (inactive); with COLO 205 it was 16.5 µM (inactive); in the assay on SF-268, 15.9 µM (inactive); with M14, 22 µM (inactive); with SW-620, > 10 µM (inactive); with Malme-3M, 17.3 µM (inactive). Moreover, the concentration for 50% growth inhibition (GI50) in the assay on HCT-15 was 6.52 µM; in the assay with NCI-H460, 21.1 µM (inactive).

Consider `N=C(N)/N=C(/C=C/c1ccccc1)CC1OC(=O)c2ccccc21` (centres undefined), for which the GI50 with A498 is > 100 µM (inactive); in the assay on HL-60 it was > 100 µM (inactive); in the assay on HT-29, > 100 µM (inactive); with CCRF-CEM it was 86.9 µM (inactive); in the assay on UACC-257, > 100 µM (inactive); with OVCAR-8, > 100 µM (inactive). Moreover, the GI50 in the assay on COLO 205 was > 100 µM (inactive); in the assay with SF-268 it was 61.1 µM (inactive); with M14, > 100 µM (inactive); in the assay on SW-620, > 100 µM (inactive); with IGROV-1 it was > 100 µM (inactive); in the assay with Malme-3M it was > 100 µM (inactive). For the same molecule, the values for the 50% growth inhibitory concentration (GI50) with HCT-15 and in the assay on NCI-H460 were over 100 µM and > 100 µM (inactive), respectively.
